Test results: patent US10350334B2, “Catheter locking solution having antimicrobial and anticoagulation properties” (Becton, Dickinson and Company, priority 2009, dated 2019)

System: Staphylococcus epidermidis
Assay: Planktonic cell tests
Assay type: cell-based
Details: 12 mg/mL, 30 and 60 minutes
Method: In the planktonic cell tests, bupivacine was tested against non-adhering coagulase negative S. epidermidis, which is the bacterial species most prominent in the pathogenesis of CR-BSI. The planktonic cell experiments were performed by the following procedures. First, bacterial suspensions were prepared. Particularly, using BD BBL™ Qualiswab™, S. epidermidis was plated on a Tryptic Soy Broth (TSB) Petri Dish and grown overnight at 37° C. Using a sterile loop, a colony of S. epidermidis was picked up from the TSB Petri Dish and placed into a sterile flask containing 25 mL of sterile TSB media. The flask was then placed in a 37° C. shaking incubator and was shaken at 150 RPM overnight. The next day, 15 mL of the prepared bacterial suspension was placed into an autoclaved centrifuge tube and centrifuged at 10,000 RPM for 10 minutes using a Sorval Centrifuge. The bacteria from the bacterial suspension were rinsed in 0.9% saline by discarding the liquid media (after centrifugation step) and by resuspending the microbial pellet in 20 mL of sterile 0.9% saline. The bacteria were centrifuged and rinsed twice more, for a total of three saline rinses. […]
Bulk concentrations of the bupivacaine and/or vancomyacin (as noted in FIG. 1) were prepared in separate beakers and were filter sterilized. […] Samples were also assessed at time 0, in which there was no exposure to antimicrobials. […]

SMILES: CCCCN1CCCCC1C(=O)Nc1c(C)cccc1C.Cl (stereo not shown) [Bupivacaine, Bupivacaine HCl]
- antimicrobial effect against planktonic Staphylococcus epidermidis: significant antimicrobial effect
